Measurements taken from US12404283B2, “c-MYC mRNA translation modulators and uses thereof in the treatment of cancer” (Anima Biotech Inc., priority 2022, dated 2025).

Each compound was assayed on c-Myc (assay: c-Myc immunofluorescence assay). Details: A549 cells, 24 hours treatment, anti-c-Myc immunofluorescence.
Assay type: cell-based, human
How it was run: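 A549 cells grown 48 h, exposed 24 h to rising compound concentrations, then fixed, permeabilised and stained for c-Myc plus DAPI. Nuclear-segmented c-Myc fluorescence quantified by high-content imaging at 20×; EC50 from logistic dose–response fits.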

Structure (SMILES)	Myc Efficacy (−LogEC50)
NCc1c(F)cc(-c2cn3c(n2)sc2cc(C(=O)NCCCN4CCCCC4)ccc23)cc1Cl [compound 384, 2-(4-(aminomethyl)-3-chloro-5-fluorophenyl)-N-(3-(piperidin-1-yl)propyl)benzo[d]imidazo [2,1-b]thiazole-7-carboxamide]	++ (++ ≥5 and <6)
CNC(=O)c1ccc(-c2nc3sc4cc(C(=O)NCCCN5CCCCC5)ccc4n3n2)c(F)c1 [compound 386, 2-(2-fluoro-4-(methylcarbamoyl)phenyl)-N-(3-(piperidin-1-yl)propyl)benzo[4,5]thiazolo [3,2-b][1,2,4]triazole-6-carboxamide]	+++ (+++ ≥6)
NCc1ccc(-c2nc3sc4cc(C(=O)NCCCN5CCCCC5)ccc4n3n2)c(F)c1 [compound 387, 2-(4-(aminomethyl)-2-fluorophenyl)-N-(3-(piperidin-1-yl)propyl)benzo[4,5]thiazolo [3,2-b][1,2,4]triazole-6-carboxamide]	+++ (+++ ≥6)
CCN(CC)CCCNC(=O)c1ccc2c(c1)sc1nc(-c3ccc(CN)cc3F)nn12 [compound 388, 2-(4-(aminomethyl)-2-fluorophenyl)-N-(3-(diethylamino)propyl) benzo[4,5]thiazolo[3,2-b][1,2,4]triazole-6-carboxamide]	++ (++ ≥5 and <6)
CNC(=O)c1ccc(-c2nc3sc4cc(C(=O)NCCCN5CCC(F)CC5)ccc4n3n2)c(F)c1 [compound 389, 2-(2-fluoro-4-(methylcarbamoyl)phenyl)-N-(3-(4-fluoropiperidin-1-yl)propyl)benzo[4,5]thiazolo [3,2-b][1,2,4]triazole-6-carboxamide]	++ (++ ≥5 and <6)
NCc1ccc(-c2nc3sc4cc(C(=O)NCCCN5CCC(F)CC5)ccc4n3n2)c(F)c1 [compound 390, 2-(4-(aminomethyl)-2-fluorophenyl)-N-(3-(4-fluoropiperidin-1-yl)propyl)benzo[4,5]thiazolo [3,2-b][1,2,4]triazole-6-carboxamide]	++ (++ ≥5 and <6)
NCc1ccc(-c2nc3sc4cc(C(=O)NCCCN5CCCCC5)ccc4n3n2)cc1 [compound 392, 2-(4-(aminomethyl)phenyl)-N-(3-(piperidin-1-yl)propyl)benzo[4,5]thiazolo [3,2-b][1,2,4]triazole-6-carboxamide]	+++ (+++ ≥6)
O=C(NCCCN1CCCCC1)c1ccc2c(c1)sc1nc(-c3ccc(CNC4CC4)cc3)nn12 [compound 393, 2-(4-((cyclopropylamino)methyl)phenyl)-N-(3-(piperidin-1-yl)propyl)benzo[4,5]thiazolo [3,2-b][1,2,4]triazole-6-carboxamide]	+++ (+++ ≥6)
CCN(CC)CCCNC(=O)c1ccc2c(c1)sc1nc(-c3ccc(CNC4CC4)cc3)nn12 [compound 394, 2-(4-((cyclopropylamino)methyl)phenyl)-N-(3-(diethylamino)propyl)benzo [4,5]thiazolo[3,2-b][1,2,4]triazole-6-carboxamide]	++ (++ ≥5 and <6)
CCN(CC)CCCNC(=O)c1ccc2c(c1)sc1nc(-c3ccc(CNC4CC4)cc3F)nn12 [compound 395, 2-(4-((cyclopropylamino)methyl)-2-fluorophenyl)-N-(3-(diethylamino)propyl)benzo [4,5]thiazolo[3,2-b][1,2,4]triazole-6-carboxamide]	++ (++ ≥5 and <6)
O=C(NCCCN1CCCCC1)c1ccc2c(c1)sc1nc(-c3ccc(CNC4CC4)cc3F)nn12 [compound 396, 2-(4-((cyclopropylamino)methyl)-2-fluorophenyl)-N-(3-(piperidin-1-yl)propyl)benzo[4,5]thiazolo [3,2-b][1,2,4]triazole-6-carboxamide]	++ (++ ≥5 and <6)
CCN(CC)CCCNC(=O)c1ccc2c(c1)sc1nc(-c3ccc(C4(N)CC4)cc3)nn12 [compound 397, 2-(4-(1-aminocyclopropyl)phenyl)-N-(3-(diethylamino)propyl)benzo [4,5]thiazolo[3,2-b][1,2,4]triazole-6-carboxamide]	++ (++ ≥5 and <6)
NC1(c2ccc(-c3nc4sc5cc(C(=O)NCCCN6CCCCC6)ccc5n4n3)cc2)CC1 [compound 398, 2-(4-(1-aminocyclopropyl)phenyl)-N-(3-(piperidin-1-yl)propyl)benzo[4,5]thiazolo [3,2-b][1,2,4]triazole-6-carboxamide]	++ (++ ≥5 and <6)
CNC(=O)c1ccc(-c2cn3c(n2)sc2cc(C(=O)NCCCN4CCCCC4)ncc23)cc1 [compound 406, 2-(4-(methylcarbamoyl)phenyl)-N-(3-(piperidin-1-yl)propyl)imidazo[2′,1′:2,3] thiazolo[4,5-c]pyridine-7-carboxamide]	++ (++ ≥5 and <6)
O=C(NCCCN1CCCCC1)c1ccc2c(c1)sc1nc(-c3ccc([C@H]4CCCN4)cc3)cn12 [compound 412, (R)-N-(3-(piperidin-1-yl)propyl)-2-(4-(pyrrolidin-2-yl)phenyl)benzo[d]imidazo [2,1-b]thiazole-7-carboxamide]	+++ (+++ ≥6)
O=C(NCCCN1CCCCC1)c1ccc2c(c1)sc1nc(-c3ccc([C@@H]4CCCN4)cc3)cn12 [compound 413, (S)-N-(3-(piperidin-1-yl)propyl)-2-(4-(pyrrolidin-2-yl)phenyl)benzo[d]imidazo [2,1-b]thiazole-7-carboxamide]	+++ (+++ ≥6)
CCN(CC)CCCNC(=O)c1ccc2c(c1)sc1nc(-c3ccc([C@H]4CCCN4)cc3)cn12 [compound 414, (R)-N-(3-(diethylamino)propyl)-2-(4-(pyrrolidin-2-yl)phenyl)benzo[d]imidazo [2,1-b]thiazole-7-carboxamide]	+++ (+++ ≥6)
CCN(CC)CCCNC(=O)c1ccc2c(c1)sc1nc(-c3ccc([C@@H]4CCCN4)cc3)cn12 [compound 415, (S)-N-(3-(diethylamino)propyl)-2-(4-(pyrrolidin-2-yl)phenyl)benzo[d]imidazo [2,1-b]thiazole-7-carboxamide]	+++ (+++ ≥6)
O=C(NCCCN1CCCCC1)c1ccc2c(c1)sc1nc(-c3ccc(C4CCCN4)cc3F)cn12 (stereo not drawn) [compound 416, 2-(2-fluoro-4-(pyrrolidin-2-yl)phenyl)-N-(3-(piperidin-1-yl)propyl)benzo[d]imidazo [2,1-b]thiazole-7-carboxamide]	+++ (+++ ≥6)
O=C(NCCCN1CCCCC1)c1ccc2c(c1)sc1nc(-c3ccc([C@H]4CCCN4)cc3F)cn12 [compound 417, (R)-2-(2-fluoro-4-(pyrrolidin-2-yl)phenyl)-N-(3-(piperidin-1-yl)propyl)benzo[d]imidazo [2,1-b]thiazole-7-carboxamide]	+++ (+++ ≥6)
O=C(NCCCN1CCCCC1)c1ccc2c(c1)sc1nc(-c3ccc([C@@H]4CCCN4)cc3F)cn12 [compound 418, (S)-2-(2-fluoro-4-(pyrrolidin-2-yl)phenyl)-N-(3-(piperidin-1-yl)propyl)benzo[d]imidazo [2,1-b]thiazole-7-carboxamide]	+++ (+++ ≥6)
O=C(NCCCN1CCC(F)CC1)c1ccc2c(c1)sc1nc(-c3ccc([C@H]4CCCN4)cc3F)cn12 [compound 419, (R)-2-(2-fluoro-4-(pyrrolidin-2-yl)phenyl)-N-(3-(4-fluoropiperidin-1-yl)propyl)benzo[d]imidazo [2,1-b]thiazole-7-carboxamide]	+++ (+++ ≥6)
O=C(NCCCN1CCC(F)CC1)c1ccc2c(c1)sc1nc(-c3ccc([C@@H]4CCCN4)cc3F)cn12 [compound 420, (S)-2-(2-fluoro-4-(pyrrolidin-2-yl)phenyl)-N-(3-(4-fluoropiperidin-1-yl)propyl)benzo[d]imidazo [2,1-b]thiazole-7-carboxamide]	+++ (+++ ≥6)
O=C(NCCCN1CCCCC1)c1ccc2c(c1)sc1nc(-c3ccc([C@H]4CCCN4)cc3F)nn12 [compound 421, (R)-2-(2-fluoro-4-(pyrrolidin-2-yl)phenyl)-N-(3-(piperidin-1-yl)propyl)benzo[4,5]thiazolo [3,2-b][1,2,4]triazole-6-carboxamide]	++ (++ ≥5 and <6)
O=C(NCCCN1CCCCC1)c1ccc2c(c1)sc1nc(-c3ccc([C@@H]4CCCN4)cc3F)nn12 [compound 422, (S)-2-(2-fluoro-4-(pyrrolidin-2-yl)phenyl)-N-(3-(piperidin-1-yl)propyl)benzo[4,5]thiazolo [3,2-b][1,2,4]triazole-6-carboxamide]	+++ (+++ ≥6)
O=C(NCCCN1CCC(F)CC1)c1ccc2c(c1)sc1nc(-c3ccc(C4(O)COC4)cc3F)cn12 [compound 425]	+++ (+++ ≥6)
O=C(NCCCN1CCC(F)CC1)c1ccc2c(c1)sc1nc(-c3cc4c(cc3F)CNC4)cn12 [compound 454, 2-(6-fluoroisoindolin-5-yl)-N-(3-(4-fluoropiperidin-1-yl)propyl)benzo[d]imidazo [2,1-b]thiazole-7-carboxamide]	+++ (+++ ≥6)
O=C(NCCCN1CCC(F)CC1)c1ccc2c(c1)sc1nc(-c3c(F)cc(C4CCCN4)cc3C3CC3)cn12 (stereo not drawn) [compound 475, 2-(2-cyclopropyl-6-fluoro-4-(pyrrolidin-2-yl)phenyl)-N-(3-(4-fluoropiperidin-1-yl)propyl)benzo[d]imidazo[2,1-b]thiazole-7-carboxamide]	++ (++ ≥5 and <6)
O=C(NCCCN1CCC(F)CC1)c1ccc2c(c1)sc1nc(-c3cc(F)c(C4CCCN4)cc3F)cn12 (stereo not drawn) [compound 477, 2-(2,5-difluoro-4-(pyrrolidin-2-yl)phenyl)-N-(3-(4-fluoropiperidin-1-yl)propyl)benzo[d]imidazo[2,1-b]thiazole-7-carboxamide]	+++ (+++ ≥6)
O=C(NCCCN1CCC(F)CC1)c1ccc2c(c1)sc1nc(-c3ccc(-c4ncc[nH]4)cc3F)cn12 [compound 482, 2-(2-fluoro-4-(1H-imidazol-2-yl)phenyl)-N-(3-(4-fluoropiperidin-1-yl)propyl)benzo[d]imidazo[2,1-b]thiazole-7-carboxamide]	+++ (+++ ≥6)
